Assay results reported in PubChem BioAssay AID1963971 (Molecular Pharmacology Branch, DTP, NCI, 2024).

System: 953936-095-R-J2-PDC spheroids with HUVEC/MSC, viability
Experiment: Anticancer human tumor 953936-095-R-J2-PDC patient-derived cervical squamous cell carcinoma cell line growth inhibition [PI3K]
Conditions: for IC50: curve of first compound; for viability, T/C: stronger effect = lower value
Description: Combinatorial screen of targeted agents with the PI3K inhibitors inavolisib, alpelisib, duvelisib, and copanlisib in multi-cell type tumor spheroids
A high-throughput screen of multi-cell type tumor spheroids was designed to identify active combinations of targeted small molecules and PI3K pathway inhibitors. Complex spheroids include a stromal component modeled by human endothelial cells (HUVEC) and fibroblasts modeled by human mesenchymal stem cells (MSCs). The concentration ranges selected for each drug and investigational agent were based upon clinically achievable concentrations if the clinical Cmax of the agent was known.
Compounds. The drugs and investigational agents: inavolisib (NSC800729), alpelisib (NSC765974), duvelisib (NSC772469), copanlisib (NSC816437), ipatasertib (NSC767898), afuresertib (NSC778305), talazoparib (NSC767125), sapanisertib (NSC764658), selumetinib (NSC741078), tovorafenib (DAY101, NSC766906), vemurafenib (NSC761431), ravoxertinib (NSC781343), sotorasib (NSC818433), MRTX1133 (NSC 836407), abemaciclib (NSC 768073), palbociclib (NSC758247), venetoclax (NSC 766270), SY5609 (NSC837396), enzalutamide (NSC755605), and darolutamide (NSC825331), were obtained from the National Cancer Institute (NCI) Developmental Therapeutics Program Chemical Repository. The FDA-approved anticancer drug set is available from the NCI Developmental Therapeutics Program. […] The stock solutions were prepared in dimethyl sulfoxide (DMSO, Sigma-Aldrich, St. Louis, MO, cat. D2650) at 800-fold the tested concentration and stored at -70 degrees C prior to their use. All drugs and investigational agents were tested over a range starting from a high concentration at or near the clinical Cmax and decreasing in half-log increments. If the clinical Cmax for an agent had not been determined, the highest concentration tested was 10 microM.
Cell Culture. All cells were maintained in an incubator at 37 degrees C and 5% CO2 with 95% humidity. The PDC lines were cultured according to standard operating procedures established by the NCI PDMR (https://pdmr.cancer.gov/sops/default.htm). All PDCs were thawed and cultured in Matrigel-coated flasks prepared with a working solution of 1X Ham's F-12 nutrient mix, without supplementation (Invitrogen, Waltham, MA, cat. 11765054), 100 U/mL penicillin-streptomycin (Invitrogen, cat. 15140122), and 2.5% Matrigel (Corning Inc., Corning, NY, cat. 354248) for the first three passages. The 354836-022-R-J1-PDC, 475296-252-R-J1-PDC, and 997726-040-R-J2-PDC lines were cultured in 6A media, which includes advanced DMEM/F-12 (Thermo Fisher Scientific, cat. 12634028), 10 mM HEPES (Thermo Fisher Scientific, cat. 15630080), 1X GlutaMAX supplement (Thermo Fisher Scientific, cat. 35050061), 0.1 mg/mL primocin (InvivoGen, San Diego, CA, cat. ant-pm-2), 10% defined fetal bovine serum, heat inactivated (HyClone Laboratories Inc., Logan, UT, cat. SH30070.03HI), 50% L-WRN conditioned media (ATCC, cat. CRL-3276), 1.25 mM N-Acetyl-L-cysteine (Sigma-Aldrich, cat. A9165), 10 mM nicotinamide (Sigma-Aldrich, cat. N0636), 1X B-27 supplement (Thermo Fisher Scientific, cat. 17504044), 1X N-2 supplement (Thermo Fisher Scientific, cat. 17502048), and 10 microM Y-27632 dihydrochloride (Tocris Bioscience, Bristol, United Kingdom, cat. 1254). The 624824-186-R-J2-PDC line was cultured in 6C/Colon 1B media, which includes all 6A media components plus 50 ng/mL human EGF recombinant protein (Thermo Fisher Scientific, cat. PHG0311). […]

[1] = second compound 0.00316 µM, first compound 0.0316 µM
[2] = second compound 0.00316 µM, first compound 0.1 µM
[3] = second compound 0.00316 µM, first compound 0.316 µM
[4] = second compound 0.00316 µM, first compound 1 µM
[5] = second compound 0.00316 µM, first compound 3.16 µM
[6] = second compound 0.00316 µM, first compound 10 µM
[7] = second compound 0.01 µM, first compound 0.0316 µM
[8] = second compound 0.01 µM, first compound 0.1 µM
[9] = second compound 0.01 µM, first compound 0.316 µM
[10] = second compound 0.01 µM, first compound 1 µM
[11] = second compound 0.01 µM, first compound 3.16 µM
[12] = second compound 0.01 µM, first compound 10 µM
[13] = second compound 0.0316 µM, first compound 0.0316 µM
[14] = second compound 0.0316 µM, first compound 0.1 µM
[15] = second compound 0.0316 µM, first compound 0.316 µM
[16] = second compound 0.0316 µM, first compound 1 µM
[17] = second compound 0.0316 µM, first compound 3.16 µM
[18] = second compound 0.0316 µM, first compound 10 µM
[19] = second compound 0.1 µM, first compound 0.0316 µM
[20] = second compound 0.1 µM, first compound 0.1 µM
[21] = second compound 0.1 µM, first compound 0.316 µM
[22] = second compound 0.1 µM, first compound 1 µM
[23] = second compound 0.1 µM, first compound 3.16 µM
[24] = second compound 0.1 µM, first compound 10 µM
[25] = second compound 0.316 µM, first compound 0.0316 µM
[26] = second compound 0.316 µM, first compound 0.1 µM
[27] = second compound 0.316 µM, first compound 0.316 µM
[28] = second compound 0.316 µM, first compound 1 µM
[29] = second compound 0.316 µM, first compound 3.16 µM
[30] = second compound 0.316 µM, first compound 10 µM
[31] = second compound 1 µM, first compound 0.0316 µM
[32] = second compound 1 µM, first compound 0.1 µM
[33] = second compound 1 µM, first compound 0.316 µM
[34] = second compound 1 µM, first compound 1 µM
[35] = second compound 1 µM, first compound 3.16 µM
[36] = second compound 1 µM, first compound 10 µM
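Also: spheroids exposed to compounds for seven days before read-out.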

In the case of `CC1(C)CCC(CN2CCN(c3ccc(C(=O)NS(=O)(=O)c4ccc(NCC5CCOCC5)c([N+](=O)[O-])c4)c(Oc4cnc5[nH]ccc5c4)c3)CC2)=C(c2ccc(Cl)cc2)C1` + CC(Nc1ccc2c(c1)OCCn1cc(N3C(=O)OCC3C(F)F)nc1-2)C(N)=O, the IC50 (second compound 0.00316 µM) is reported as 6.92 µM, the IC50 (second compound 0.01 µM) is reported as 8.42 µM and the IC50 (second compound 0.0316 µM) is reported as 8.12 µM. For the same molecule, the IC50 (second compound 0.1 µM) was greater than 10 µM, the IC50 (second compound 0.316 µM) was less than 0.0316 µM and the IC50 (second compound 1 µM) was less than 0.0316 µM. For the same molecule, the viability, T/C [1] was 88.4%, the viability, T/C [2] was 89.8% and the viability, T/C [3] was 90.4%. The viability, T/C [4] was 100%, the viability, T/C [5] was 142% and the viability, T/C [6] was 25.5%. The viability, T/C [7] was 90.2%, the viability, T/C [8] was 88.9% and the viability, T/C [9] was 92.3%. For the same molecule, the viability, T/C [10] was 93.6%, the viability, T/C [11] was 115% and the viability, T/C [12] was 41.9%. It also gave a viability, T/C [13] of 77%, a viability, T/C [14] of 74.6% and a viability, T/C [15] of 75.8%. It also gave a viability, T/C [16] of 75.8%, a viability, T/C [17] of 85% and a viability, T/C [18] of 44%. For the same molecule, the viability, T/C [19] was 57.7%, the viability, T/C [20] was 53% and the viability, T/C [21] was 53.1%. The viability, T/C [22] was 59.4%, the viability, T/C [23] was 59.5% and the viability, T/C [24] was 48.3%. For the same molecule, the viability, T/C [25] was 35.7%, the viability, T/C [26] was 36% and the viability, T/C [27] was 33.5%. It also gave a viability, T/C [28] of 31.8%, a viability, T/C [29] of 32.5% and a viability, T/C [30] of 36.9%. It also gave a viability, T/C [31] of 22.3%, a viability, T/C [32] of 24.4% and a viability, T/C [33] of 21.2%. The viability, T/C [34] was 22.1%, the viability, T/C [35] was 22.1% and the viability, T/C [36] was 21.7%.

For `C[C@@H](NC(=O)c1ncnc(N)c1Cl)c1ncc(C(=O)Nc2cc(C(F)(F)F)c(Cl)cn2)s1` + CC(Nc1ccc2c(c1)OCCn1cc(N3C(=O)OCC3C(F)F)nc1-2)C(N)=O, the IC50 (second compound 0.00316 µM) was greater than 10 µM, the IC50 (second compound 0.01 µM) was greater than 10 µM and the IC50 (second compound 0.0316 µM) was greater than 10 µM. It also gave an IC50 (second compound 0.1 µM) greater than 10 µM, an IC50 (second compound 0.316 µM) of less than 0.0316 µM and an IC50 (second compound 1 µM) of less than 0.0316 µM. The viability, T/C [1] was 98.6%, the viability, T/C [2] was 103% and the viability, T/C [3] was 101%. The viability, T/C [4] was 104%, the viability, T/C [5] was 113% and the viability, T/C [6] was 97.7%. It also gave a viability, T/C [7] of 97.2%, a viability, T/C [8] of 89.3% and a viability, T/C [9] of 102%. The viability, T/C [10] was 99.5%, the viability, T/C [11] was 107% and the viability, T/C [12] was 121%. The viability, T/C [13] was 78.6%, the viability, T/C [14] was 74.3% and the viability, T/C [15] was 78.2%. For the same molecule, the viability, T/C [16] was 90.8%, the viability, T/C [17] was 93.9% and the viability, T/C [18] was 85.2%. For the same molecule, the viability, T/C [19] was 55.6%, the viability, T/C [20] was 56.5% and the viability, T/C [21] was 61.2%. It also gave a viability, T/C [22] of 61.5%, a viability, T/C [23] of 67.8% and a viability, T/C [24] of 53.2%. For the same molecule, the viability, T/C [25] was 37.2%, the viability, T/C [26] was 34.8% and the viability, T/C [27] was 38.3%. It also gave a viability, T/C [28] of 39.8%, a viability, T/C [29] of 40.8% and a viability, T/C [30] of 41.9%. For the same molecule, the viability, T/C [31] was 23%, the viability, T/C [32] was 26.8% and the viability, T/C [33] was 25.3%. It also gave a viability, T/C [34] of 27.2%, a viability, T/C [35] of 27.7% and a viability, T/C [36] of 24.8%.
